This passage reports GI50 and TGI results from PubChem BioAssay (NCI).

Values joined by “and” are separate entries in the source; they are usually repeats but may differ in a detail not shown here. Equal values may be shown once.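 Assay format: 96-well plates, 48-hour exposure. GI50 marks 50% less growth. At the TGI there is no net growth.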 Where only a bound is given, the exact number is not on record here.

What all share (assay): inhibition of tumour cell growth, NCI panel, 48 h
The subject of test [1] is LOX IMVI melanoma.
Test [2] relates to SK-OV-3 ovarian.
The test system of test [3] is DU-145 prostate.
In test [4] the test system is SF-295 CNS.
The test system of test [5] is TK-10 renal.
The test system of test [6] is NCI-H460 lung.
The test system of test [7] is RXF 393 renal.
Test [8] relates to SK-MEL-28 melanoma.
In test [9] the test system is CCRF-CEM leukemia.
Test [10] deals with SF-268 CNS.

As for `COc1ccc(NC(=O)c2cc(OC)c(OC)c(OC)c2)cc1O`, the GI50 is 8.33 µM in [1]; 4.95 µM in [2]; 3.96 µM in test [3]; 2.78 µM in test [4]; more than 100 µM in test [5]; 3 µM in test [6]. The GI50 in [7] is 3.75 µM; in test [8], 28.1 µM; in test [9], 4.13 µM; in test [10], 5.43 µM. The TGI in [1], in test [2], in test [3], in [4], in [5] and in test [6] was more than 100 µM throughout. In addition, the TGI in test [7] is 83.9 µM; in [8], more than 100 µM; in test [9] it was more than 100 µM; in test [10], more than 100 µM.
Take `Cn1cnc([N+](=O)[O-])c1Sc1ncnc2c1ncn2C1OC(CO)C(O)C1O` (configuration not stated): the GI50 in test [1] was 1.71 µM; in [2] it was 0.564 µM; in test [3], 1.87 µM; in test [4], 2.95 µM; in test [5], 4.58 µM; in test [6], 5.72 µM. Also, the GI50 in test [7] was 24.6 µM; in test [8], 72.2 µM; in test [9] it was 21.7 µM; in [10], 18.4 µM. In addition, the TGI in test [1], in test [2], in test [3], in [4], in test [5] and in test [6] was more than 100 µM each time. The TGI in test [7], in [8], in test [9] and in test [10] was more than 100 µM throughout.
Turning to `CN(C)c1ccc(/C=C/c2ccnc3ccccc23)cc1`, the GI50 was 4.7 µM in [1]; 4.42 µM in test [2]; 5.86 µM in test [3]; 3.43 µM in test [4]; 9.49 µM in test [5]; 3.07 µM in [6]. Further, the GI50 in test [7] was 13.4 µM; in test [8] it was 9.01 µM; in [9], 4.52 µM; in test [10] it was 5.58 µM. Moreover, the TGI in test [1] was > 100 µM and 19.7 µM; in test [2] it was > 100 µM and 48.7 µM; in test [3], more than 100 µM; in [4] it was > 100 µM and 21.2 µM; in test [5], > 100 µM and 58.4 µM; in [6], > 100 µM and 16.8 µM. Besides, the TGI in [7], in test [8], in [9] and in [10] was more than 100 µM throughout.
`C[Se]C(=O)CC1=C2C=C(F)C=CC2/C(=C\c2ccc(S(C)=O)cc2)C1C` (configuration not stated): the GI50 in test [1] is 0.0141 µM; in test [2] it was 0.0493 µM; in [3], 0.0187 µM; in [4], less than 0.0156 µM; in test [6], less than 0.01 µM; in test [7], 0.0289 µM. The values for the GI50 in test [8], in [9] and in test [10] were 0.0343 µM, 0.208 µM and less than 0.01 µM, respectively. The TGI in test [1] is 0.0296 µM; in test [2], 1.58 µM; in [3] it was 1.16 µM; in test [4], 0.0465 µM; in test [6], 0.526 µM; in test [7], 0.8 µM. The results for the TGI in test [8], in test [9] and in test [10] were 0.891 µM, more than 20.6 µM and 0.0242 µM, respectively.
For `FC(F)(F)c1ccc(-c2cnc(Br)nc2NC2CCCCCC2)cc1`, the GI50 was more than 100 µM in test [2]; more than 100 µM in test [3]; 69.6 µM in test [4]; more than 100 µM in [5]; 82.2 µM in [6]; 24.9 µM in [7]. Further, the GI50 was more than 100 µM in test [8], 84.7 µM in [9] and more than 100 µM in [10]. For the same molecule, the TGI in test [2], in [3], in [4], in [5], in [6] and in test [7] was more than 100 µM in each case. Also, the TGI in test [8], in [9] and in test [10] was more than 100 µM each time.
On to `COc1ccc2c(c1)OC13Oc4cc(OC)ccc4C=C1CCCC3=C2`, for which the GI50 in test [1], in [2], in [3], in test [4], in [5] and in test [6] was more than 100 µM in each case. For the same molecule, the GI50 in test [7] was more than 100 µM; in test [8] it was more than 100 µM; in test [9], 5.88 µM; in test [10], more than 100 µM. Besides, the TGI in [1], in test [2], in test [3], in test [4], in test [5] and in test [6] was more than 100 µM in each case. For the same molecule, the TGI in test [7], in test [8], in test [9] and in [10] was more than 100 µM each time.
As to `CN(Cc1cnc2nc(N)nc(N)c2n1)c1ccc(C(=O)NC(CCC(=O)O)C(=O)O)cc1` (configuration not stated), the GI50 in test [1] was 0.0372 µM; in [2] it was 6.04 µM; in [3], 0.204 µM; in [4], 0.175 µM; in test [5], more than 100 µM; in test [6] it was 0.05 µM. The GI50 in test [8] was 21 µM; in test [9], 0.056 µM; in test [10] it was 0.247 µM. For the same molecule, the TGI was more than 100 µM in test [1]; more than 100 µM in test [2]; more than 100 µM in test [3]; 36.5 µM in test [4]; more than 100 µM in [5]; more than 100 µM in test [6]. In addition, the TGI in test [7], in test [8], in test [9] and in test [10] was more than 100 µM each time.
As to `COc1ccc(/C=C2\N=C3SC=C(N)N3C2=O)cc1`, the GI50 in [1] was 0.964 µM; in test [2], 2.16 µM; in [3], 1.2 µM; in test [4] it was 0.642 µM; in [6] it was 0.582 µM; in test [7], 0.303 µM. The GI50 in test [8] is 1.29 µM; in [9], 0.4 µM; in [10], 1.82 µM. The TGI in test [1] was 2.43 µM; in [2], 11.7 µM; in test [3], 2.71 µM; in [4], 14.2 µM; in [6], 14 µM; in test [7] it was 1.58 µM. In addition, the TGI in [8] worked out at 4.75 µM; in [9] it was 4.33 µM; in [10], 7.29 µM.
Take `O=c1[nH]c(-c2ccc(C(F)(F)F)cc2)nc2c1CSCC2`: the GI50 in test [1] was more than 71.1 µM; in [2] it was 30 µM; in test [3], more than 84.5 µM; in test [4] it was 52.7 µM; in test [5] it was 23.8 µM; in test [6], more than 100 µM. Besides, the GI50 is 19.6 µM in [7], 80.3 µM in test [8], more than 100 µM in test [9] and 53.2 µM in test [10]. The TGI was more than 100 µM in [1]; 99.8 µM in test [2]; more than 100 µM in test [3]; more than 100 µM in [4]; 66.8 µM in [5]; more than 100 µM in test [6]. Also, the TGI in [7] is 65.8 µM; in [8] it was more than 100 µM; in test [9] it was more than 100 µM; in test [10], more than 100 µM.
Consider `O=C(/C=C/c1ccco1)Nc1ncc(Cc2ccc(F)cc2)s1`, for which the GI50 in [1] is 0.0918 µM; in [2], 0.0455 µM; in test [3] it was 0.0901 µM; in test [4], 0.0709 µM; in [5], 10.2 µM; in test [6], 0.0397 µM. For the same molecule, the GI50 in [7] is 0.122 µM; in test [8], 3.5 µM; in [9] it was 0.0614 µM; in [10], 0.201 µM. Moreover, the TGI in [1], in test [2], in test [3], in test [4], in test [5] and in test [6] was more than 100 µM throughout. Further, the TGI was 0.593 µM in [7], more than 100 µM in test [8], more than 100 µM in test [9] and more than 100 µM in test [10].
Take `COc1ccccc1-n1c(SCc2cc(OC)c(OC)c(OC)c2)nc2ccc(Cl)cc2c1=O`: the GI50 was 5.16 µM in [1]; 7.76 µM in test [2]; 9.12 µM in test [3]; 48.6 µM in [5]; 3.34 µM in [6]; 3.78 µM in [7]. Besides, the GI50 in test [8] is 5.76 µM; in test [9], 3.07 µM; in [10] it was 23.1 µM. Moreover, the TGI in test [1], in test [2], in [3], in [5], in test [6] and in test [7] was more than 100 µM each time. The TGI in [8], in test [9] and in [10] was more than 100 µM in each case.
On to `Fc1ccc(-c2ncn(C3CCNCC3)c2-c2ccnc(Oc3cccc(F)c3)n2)cc1`, for which the GI50 was 10.5 µM in test [1]; more than 22.1 µM in [2]; more than 21.3 µM in [3]; 12.4 µM in test [4]; 17.1 µM in test [5]; 7.46 µM in [6]. Further, the GI50 in test [7] was 5.32 µM; in test [8], 5.46 µM; in test [10], more than 23.3 µM. Further, the TGI in test [1] was more than 25 µM; in test [2], more than 25 µM; in [3] it was more than 25 µM; in test [4], more than 25 µM; in test [5], more than 25 µM; in test [6] it was more than 21.8 µM. Further, the TGI in test [7] was more than 13.3 µM; in [8] it was 11.6 µM; in test [10], more than 25 µM.
Turning to `O=Nc1c(O)ccc2ccccc12`, the GI50 in [1] was 2.36 µM; in [2] it was 15.3 µM; in test [3] it was 3.5 µM; in test [4], 11.7 µM; in test [6] it was 14.2 µM; in test [7] it was 6.54 µM. The GI50 in test [8] is 2.8 µM; in [9] it was 3.16 µM; in test [10] it was 3.04 µM. Besides, the TGI in test [1] stood at 7.51 µM; in [2] it was 28.9 µM; in [3] it was 10.5 µM; in test [4], 24.4 µM; in test [6], 35.7 µM; in test [7], 19.5 µM. In addition, the TGI in [8] came out at 6.6 µM; in test [9], 11.4 µM; in test [10], 10.6 µM.
With `O=Cc1coc2ccccc2c1=O`, the TGI in [1] was 37.1 µM; in test [2], 50.9 µM; in test [3] it was more than 100 µM; in [4], 41.2 µM; in [5], 60.5 µM; in [6], 50.9 µM. Moreover, the values for the TGI in test [7], in test [9] and in test [10] were 40.2 µM, 69.7 µM and 56.7 µM, respectively.
Regarding `Cn1c(=O)c2[nH]c(COc3ccc(C(C)(C)C)cc3)nc2n(C)c1=O`, the GI50 in test [1] was 19.9 µM; in test [2] it was 51.6 µM; in test [3], 17.7 µM; in test [4], 4.03 µM; in [5] it was 23.9 µM; in [6], 15.4 µM. Moreover, the GI50 was 57 µM in test [7], 28.8 µM in test [8] and 14.1 µM in [10]. For the same molecule, the TGI is more than 100 µM in test [1]; more than 100 µM in [2]; more than 100 µM in [3]; more than 100 µM in [4]; 99.6 µM in test [5]; more than 100 µM in [6]. Also, the TGI in test [7], in [8] and in test [10] was more than 100 µM each time.
On to `O=C1/C(=C/c2cccs2)CCC/C1=C\c1cccs1`, for which the GI50 in [1] was more than 100 µM; in test [2], 26.5 µM; in [3], 46.6 µM; in test [4], 66.5 µM; in test [5], 25.9 µM; in test [6], more than 76.4 µM. Further, the figures for the GI50 in [7], in test [8] and in test [10] were 26.4 µM, more than 72.2 µM and 33.5 µM, respectively. The TGI was more than 100 µM in test [1]; 74.2 µM in test [2]; more than 100 µM in [3]; more than 100 µM in test [4]; more than 71.8 µM in test [5]; more than 100 µM in test [6]. The TGI in test [7], in test [8] and in [10] was more than 100 µM in each case.
